For the test, the target named is T1, Recombinant human liver GK1 (GST-GK) (Homo sapiens, UniProt P35557).
T1 construct: made in house; host or cells: E. coli
T1 sequence (P35557 1-466 isoform P35557-2): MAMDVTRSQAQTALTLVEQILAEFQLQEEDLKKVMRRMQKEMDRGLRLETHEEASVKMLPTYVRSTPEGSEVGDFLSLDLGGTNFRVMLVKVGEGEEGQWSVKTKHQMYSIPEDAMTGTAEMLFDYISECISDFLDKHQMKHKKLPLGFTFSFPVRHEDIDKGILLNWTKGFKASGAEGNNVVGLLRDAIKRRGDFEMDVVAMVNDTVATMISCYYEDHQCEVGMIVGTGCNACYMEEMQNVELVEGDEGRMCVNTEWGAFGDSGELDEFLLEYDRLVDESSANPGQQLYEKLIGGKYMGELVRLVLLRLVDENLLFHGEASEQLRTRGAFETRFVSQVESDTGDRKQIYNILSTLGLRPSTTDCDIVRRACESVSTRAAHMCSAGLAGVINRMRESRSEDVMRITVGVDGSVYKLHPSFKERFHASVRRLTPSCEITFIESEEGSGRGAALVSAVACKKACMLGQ
Nature of the test: In vitro glucokinase activity (G6PDH-coupled NADH assay). Format: biochemical. The settings on record: for SC1.5 (concentration of activator that produced a 50% increase in the activity of GK): 30° C., 5 mM D-glucose, 10% DMSO; for fold act. @ 30 μM: at 30 μM test compound. The method in brief:
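GST-tagged human liver GK1 from E. coli, assayed at 30° C in 25 mM Hepes pH 7.1 with 5 mM D-glucose, 1 mM ATP, 1.8 mM NAD and G6PDH coupling, 10% DMSO final; reaction started with enzyme after 10 min preincubation. NADH formation followed at OD340; SC1.5 is activator concentration giving 50% increase over DMSO control rate.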

Structures are written as SMILES. A value given as a limit tells only on which side of the number the result lay.

As to `CC1(C)OC[C@@H](Cn2ccc(NC(=O)[C@H](CC3CCCC3)N3CC(Oc4c(F)cccc4F)=CC3=O)n2)O1` [Example 87, (S)-3-Cyclopentyl-2-[4-(2,6-difluoro-phenoxy)-2-oxo-2,5-dihydro-pyrrol-1-yl]-N-[1-((R)-2,2-dimethyl-[1,3]dioxolan-4-yl-methyl)-1H-pyrazol-3-yl]-propionamide], the “SC1.5 (concentration of activator that produced a 50% increase in the activity of GK)” value was 0.093 µM. On the same count and under the same terms, the figure for `O=C(Nc1ccn(CCO)n1)[C@H](CC1CCCC1)N1CC(Oc2c(F)cccc2F)=CC1=O` [Example 89, (S)-3-Cyclopentyl-2-[4-(2,6-difluoro-phenoxy)-2-oxo-2,5-dihydro-pyrrol-1-yl]-N-[1-(2-hydroxy-ethyl)-1H-pyrazol-3-yl]-propionamide] is 0.05 µM. The same measure, in the same setting: the figure for `Cl.Cn1ccc(NC(=O)[C@H](CC2CCCCC2)N2CC(Oc3ccccc3C(F)(F)F)=CC2=O)n1` [Example 90, (S)-3-Cyclohexyl-N-(1-methyl-1H-pyrazol-3-yl)-2-[2-oxo-4-(2-trifluoromethyl-phenoxy)-2,5-dihydro-pyrrol-1-yl]-propionamide Hydrochloride] is 0.088 µM; for `COCCn1ccc(NC(=O)[C@H](CC2CCCCC2)N2CC(Oc3ccccc3C(F)(F)F)=CC2=O)n1.Cl` [Example 91, (S)-3-Cyclohexyl-N-[1-(2-methoxy-ethyl)-1H-pyrazol-3-yl]-2-[2-oxo-4-(2-trifluoromethyl-phenoxy)-2,5-dihydro-pyrrol-1-yl]-propionamide Hydrochloride] it is 0.039 µM; for `CC(C)(O)Cn1ccc(NC(=O)[C@H](CC2CCCCO2)N2CC(Oc3cccc(Cl)c3Cl)=CC2=O)n1` (stereo partly drawn) [Example 92, (S)-2-[4-(2,3-Dichloro-phenoxy)-2-oxo-2,5-dihydro-pyrrol-1-yl]-N-[1-(2-hydroxy-2-methyl-propyl)-1H-pyrazol-3-yl]-3-(tetrahydro-pyran-2-yl)-propionamide] it is 0.161 µM. The same measure, in the same setting: the figure for `CC(C)(O)Cn1ccc(NC(=O)[C@H](CC2CCCCO2)N2CC(Oc3c(F)cccc3F)=CC2=O)n1` (stereo partly drawn) [Example 93, (S)-2-[4-(2,6-Difluoro-phenoxy)-2-oxo-2,5-dihydro-pyrrol-1-yl]-N-[1-(2-hydroxy-2-methyl-propyl)-1H-pyrazol-3-yl]-3-(tetrahydro-pyran-2-yl)-propionamide] is 0.477 µM. Turning to `CCO[C@H](C)C[C@@H](C(=O)Nc1ccn(CC(C)(C)O)n1)N1CC(Oc2cccc(Cl)c2Cl)=CC1=O` [Example 94, (2S,4R)-2-[4-(2,3-Dichloro-phenoxy)-2-oxo-2,5-dihydro-pyrrol-1-yl]-4-ethoxy-pentanoic acid [1-(2-hydroxy-2-methyl-propyl)-1H-pyrazol-3-yl]-amide], the “SC1.5 (concentration of activator that produced a 50% increase in the activity of GK)” value worked out at 0.772 µM.

In the case of `CCO[C@@H](C)C[C@@H](C(=O)Nc1ccn(CC(C)(C)O)n1)N1CC(Oc2cccc(Cl)c2Cl)=CC1=O` [Example 95, (2S,4S)-2-[4-(2,3-Dichloro-phenoxy)-2-oxo-2,5-dihydro-pyrrol-1-yl]-4-ethoxy-pentanoic acid [1-(2-hydroxy-2-methyl-propyl)-1H-pyrazol-3-yl]-amide], the “SC1.5 (concentration of activator that produced a 50% increase in the activity of GK)” value is 0.703 µM. The same measure, in the same setting: next, `CC(C)C[C@@H](C(=O)Nc1ccn(C[C@@H](O)CO)n1)N1CC(Oc2cccc(C(F)(F)F)c2)=CC1=O` [Example 96, (S)-4-Methyl-2-[2-oxo-4-(3-trifluoromethyl-phenoxy)-2,5-dihydro-pyrrol-1-yl]-pentanoic acid [1-((R)-2,3-dihydroxy-propyl)-1H-pyrazol-3-yl]-amide]: 0.97 µM. The same measure, in the same setting: next, `CC(C)C[C@@H](C(=O)Nc1ccn(C[C@@H](O)CO)n1)N1CC(Oc2cccc(Cl)c2F)=CC1=O` [Example 97, (S)-2-[4-(3-Chloro-2-fluoro-phenoxy)-2-oxo-2,5-dihydro-pyrrol-1-yl]-4-methyl-pentanoic acid [1-((R)-2,3-dihydroxy-propyl)-1H-pyrazol-3-yl]-amide]: 0.168 µM; `CC(C)C[C@@H](C(=O)Nc1ccn(C[C@@H](O)CO)n1)N1CC(Oc2cccc3c2CCCC3)=CC1=O` [Example 98, (S)-4-Methyl-2-[2-oxo-4-(5,6,7,8-tetrahydro-naphthalen-1-yloxy)-2,5-dihydro-pyrrol-1-yl]-pentanoic acid [1-((R)-2,3-dihydroxy-propyl)-1H-pyrazol-3-yl]-amide]: 0.212 µM.

Consider `COc1ccc(OC2=CC(=O)N([C@@H](CC(C)C)C(=O)Nc3ccn(C[C@@H](O)CO)n3)C2)cc1` [Example 99, (S)-2-[4-(4-Methoxy-phenoxy)-2-oxo-2,5-dihydro-pyrrol-1-yl]-4-methyl-pentanoic acid [1-((R)-2,3-dihydroxy-propyl)-1H-pyrazol-3-yl]-amide], for which the “SC1.5 (concentration of activator that produced a 50% increase in the activity of GK)” value came to 0.747 µM.

With `CC(C)C[C@@H](C(=O)Nc1ccn(C[C@@H](O)CO)n1)N1CC(Oc2cccc3ccccc23)=CC1=O` [Example 100, (S)-4-Methyl-2-[4-(naphthalen-1-yloxy)-2-oxo-2,5-dihydro-pyrrol-1-yl]-pentanoic acid [1-((R)-2,3-dihydroxy-propyl)-1H-pyrazol-3-yl]-amide], the “SC1.5 (concentration of activator that produced a 50% increase in the activity of GK)” value came to 0.06 µM. As to `CC(C)C[C@@H](C(=O)Nc1ccn(C[C@@H](O)CO)n1)N1CC(Oc2cc(F)ccc2F)=CC1=O` [Example 101, (S)-2-[4-(2,5-Difluoro-phenoxy)-2-oxo-2,5-dihydro-pyrrol-1-yl]-4-methyl-pentanoic acid [1-((R)-2,3-dihydroxy-propyl)-1H-pyrazol-3-yl]-amide], the “SC1.5 (concentration of activator that produced a 50% increase in the activity of GK)” value was found to be 0.33 µM. On the same count and under the same terms, the figure for `CC(C)C[C@@H](C(=O)Nc1ccn(C[C@@H](O)CO)n1)N1CC(Oc2ccc(F)cc2F)=CC1=O` [Example 102, (S)-2-[4-(2,4-Difluoro-phenoxy)-2-oxo-2,5-dihydro-pyrrol-1-yl]-4-methyl-pentanoic acid [1-((R)-2,3-dihydroxy-propyl)-1H-pyrazol-3-yl]-amide] is 0.578 µM; for `Cc1ccc(F)c(OC2=CC(=O)N([C@@H](CC(C)C)C(=O)Nc3ccn(C[C@@H](O)CO)n3)C2)c1` [Example 103, (S)-2-[4-(2-Fluoro-5-methyl-phenoxy)-2-oxo-2,5-dihydro-pyrrol-1-yl]-4-methyl-pentanoic acid [1-((R)-2,3-dihydroxy-propyl)-1H-pyrazol-3-yl]-amide] it is 0.072 µM; for `COCCc1nsc(NC(=O)[C@H](CC(C)C)N2CC(Oc3ccccc3Cl)=CC2=O)n1` [Example 104, (S)-2-[4-(2-Chloro-phenoxy)-2-oxo-2,5-dihydro-pyrrol-1-yl]-4-methyl-pentanoic acid [3-(2-methoxy-ethyl)-[1,2,4]thiadiazol-5-yl]-amide] it is 1.03 µM.

In the case of `CC(C)C[C@@H](C(=O)Nc1nc(C2CC2)ns1)N1CC(Oc2ccccc2Cl)=CC1=O` [Example 105, (S)-2-[4-(2-Chloro-phenoxy)-2-oxo-2,5-dihydro-pyrrol-1-yl]-4-methyl-pentanoic acid (3-cyclopropyl-[1,2,4]thiadiazol-5-yl)-amide], the “SC1.5 (concentration of activator that produced a 50% increase in the activity of GK)” value was more than 30 µM and the “fold act. @ 30 μM” value is reported as 1.4 fold.

Consider `CC(C)C[C@@H](C(=O)Nc1nc(CCC(F)(F)F)ns1)N1CC(Oc2ccccc2Cl)=CC1=O` [Example 106, (S)-2-[4-(2-Chloro-phenoxy)-2-oxo-2,5-dihydro-pyrrol-1-yl]-4-methyl-pentanoic acid [3-(3,3,3-trifluoro-propyl)-[1,2,4]thiadiazol-5-yl]-amide], for which the “SC1.5 (concentration of activator that produced a 50% increase in the activity of GK)” value was approximately 30 µM and the “fold act. @ 30 μM” value was found to be 1.5 fold. On to `Cc1nsc(NC(=O)[C@H](CC(C)C)N2CC(Oc3ccccc3Cl)=CC2=O)n1` [Example 107, (S)-2-[4-(2-Chloro-phenoxy)-2-oxo-2,5-dihydro-pyrrol-1-yl]-4-methyl-pentanoic acid (3-methyl-[1,2,4]thiadiazol-5-yl)-amide], for which the “SC1.5 (concentration of activator that produced a 50% increase in the activity of GK)” value is more than 30 µM and the “fold act. @ 30 μM” value is recorded as 1.4 fold.

Regarding `CC(C)C[C@@H](C(=O)Nc1nc(N(C)C)ns1)N1CC(Oc2ccccc2Cl)=CC1=O` [Example 108, (S)-2-[4-(2-Chloro-phenoxy)-2-oxo-2,5-dihydro-pyrrol-1-yl]-4-methyl-pentanoic acid (3-dimethylamino-[1,2,4]thiadiazol-5-yl)-amide], the “SC1.5 (concentration of activator that produced a 50% increase in the activity of GK)” value was more than 30 µM and the “fold act. @ 30 μM” value stood at 1.4 fold. The like results for `COc1ccc(Cc2nsc(NC(=O)[C@H](CC(C)C)N3CC(Oc4ccccc4Cl)=CC3=O)n2)cc1` [Example 109, (S)-2-[4-(2-Chloro-phenoxy)-2-oxo-2,5-dihydro-pyrrol-1-yl]-4-methyl-pentanoic acid [3-(4-methoxy-benzyl)-[1,2,4]thiadiazol-5-yl]-amide] were, in that order, more than 30 µM and 1.3 fold.

Values taken from patent US7741327B2 (Hoffmann-La Roche Inc., priority 2008, dated 2010).
